Experiments:
Assay type in all cases: cell-based
[1] = test system: Serratia marcescens (SM) ATCC 6538; experiment: In vitro biofilm assay; details: for Log εPLL (log CFU recovered per εPLL lens): 10^7 CFU/mL, 2 hours adhesion, 24 hours biofilm growth; for Log Reduction: versus control lens
Protocol: (§1) Lenses at the 0 hour time point and from the 168 hour time point were used to test whether they supported biofilm formation. The lenses were rinsed for 5 seconds in 2.5 mL of sterile PBS then transferred into an individual well of a 24-well plate containing 1.0 mL of bacterial inoculum at approximately 10^7CFU/mL, prepared as described in Example 5. The plates were incubated for 2 hours on a 37° C. with gentle rotary agitation. The remaining inoculum, i.e. not incubated with lenses, was also incubated on the shaker for the duration of each experiment to determine the cfu/mL of the inoculum at t=2 hr and t=24 hr. After 2 hours incubation each lens was washed using the bacterial wash step described in Example 5 then placed on an insert of a 24-well plate for biofilm formation as described below. The inoculum concentration (at t=0 hr and 2 hr) was confirmed by serial dilution, plating onto TSA, incubating overnight at 37° C. and colony counting.
(§2) Custom-made mushroom-shaped stainless steel inserts, depicted in FIG. 1, were placed in each well of a 24-well plate. The cap portion of each insert has a diameter of approximately 14 mm and a curvature to match the posterior surface of a contact lens. The height of each insert is approximately 11 mm. One mL of sterile media/diluent was added to each well. Each preloaded, washed lens (as described above) was placed on the top (cap portion) of an insert, convex side up. The dimensions of the inserts and the volume of the media are such that the periphery of the placed lens is in contact with the media/diluent and the center portion of the lens is at the liquid/air interface. Plates were loosely sealed to prevent evaporation, and incubated for 24 hours at 37° C., with rotary agitation. After incubation, each lens was subjected to the bacterial wash step as described in Example 5. Bacteria were recovered from the washed lenses and log kill calculated as described above in Example 5. Each t-24 hr inoculum concentration was confirmed as described above for t=0 and t=2 hr time points.

[2] = test system: Pseudomonas aeruginosa (PA) ATCC 9027; experiment: In vitro biofilm assay; details: for Log εPLL (log CFU recovered per εPLL lens): 10^7 CFU/mL, 2 hours adhesion, 24 hours biofilm growth; for Log Reduction: versus control lens
Protocol: as §1, §2

[3] = test system: Staphylococcus aureus (SA) ATCC 13880; experiment: In vitro bioactivity assay; details: for log kill of SA: ionic silicone hydrogel contact lens with about 10 μg PQ-1 and/or about 200 μg εPLL, 24 hour incubation, 10^7 inoculum; for log kill εPLL: Formulation F lens autoclaved in 500 ppm εPLL in PBS
Protocol: (§3) Cultures were prepared from growing a single colony of each of the bacterial species shown in Table 3 below in 50 ml. trypticase soy broth (TSB) overnight at 37° C. on a rotary shaker. 1 ml of each culture was centrifuged, and the bacterial pellet resuspended in 1.0 ml of the diluent shown in Table 3, where PBST is 19 mM PBS at pH 7.3 (0.83 wt. % NaCl, 0.03 wt. % sodium phosphate monobasic, and 0.24% sodium phosphate dibasic) with 0.05% Tween. For each bacterial species, a suspension of approximately 10^8CFU/mL was prepared by diluting the bacterial suspension to achieve the optical density indicated in Table 3.
(§4) Each suspension was further diluted to approximately 10^4CFU/mL (low inoculum) or 10^7CFU/mL (high inoculum) using the above diluents to make the bacterial inoculums for testing bioactivity of lenses.
(§5) Each lens was rinsed in 2.5 ml sterile PBS for a few seconds, and transferred into an individual well of a 24-well plate containing 1.0 ml of bacteria inoculum. The plates were incubated at 37° C. with gentle shaking. The original inoculums were incubated for the duration of the experiment to confirm the concentrations at each sample recovery time point. At the time point tested, each lens was removed from its well and transferred to a well of a 12-well plate containing 2.5 mL of sterile PBST. The plate was gently swirled gently for about 30 seconds. This step was repeated once for each lens. Such 2× wash step is referred to herein as the bacterial wash step.
(§6) Each washed lens was placed in a microcentrifuge tube containing 1 ml of Dey-Engley (DE) neutralizing broth and adhered bacteria were removed by a combination of sonication for about 2 minutes and vortexing for about 10 minutes. Serial dilutions were made for each recovered cell suspension using DE neutralizing broth and suitable dilutions were plated onto TSA. Plates were incubated overnight at 37° C. and CFUs were counted.
(§7) The CFU for each plate was multiplied by the dilution factor (DF) as well as the plating dilution factor (PDF). The total CFUs recovered for a given sample were then converted to the log 10. To calculate the log kill of an antimicrobial lens, the log of CFU/lens of the antimicrobial lens is subtracted from that of the control lens. For example, if the mean log 10 value of an antimicrobial lens is 1.05 and the mean log 10 value of an otherwise identical control lens lacking the active antimicrobial agent is 5.52, the log kill is 5.52−1.05=4.47.

[4] = test system: Serratia marcescens (SM) ATCC 6538; experiment: In vitro bioactivity assay; details: for log kill of SM: ionic silicone hydrogel contact lens with about 10 μg PQ-1 and/or about 200 μg εPLL, 24 hour incubation, 10^7 inoculum; for log kill εPLL: Formulation F lens autoclaved in 500 ppm εPLL in PBS
Protocol: as §3, §4, §5, §6, §7

[5] = test system: Pseudomonas aeruginosa (PA) ATCC 9027; experiment: In vitro bioactivity assay; details: for log kill εPLL: Formulation F lens autoclaved in 500 ppm εPLL in PBS
Protocol: as §3, §4, §5, §6, §7

[6] = test system: Staphylococcus aureus (SA) ATCC 13880; experiment: In vitro biofilm assay; details: for Log εPLL (log CFU recovered per εPLL lens): 10^7 CFU/mL, 2 hours adhesion, 24 hours biofilm growth; for Log Reduction: versus control lens
Protocol: as §1, §2

[7] = lenses packaged in PBS containing 30 μg/ml PQ-1
[8] = SA, Formulation F lenses without εPLL, 72 hours in PBS plus PQ-1, high inoculum (10^7), 24-hour incubation
[9] = SM, Formulation F lenses without εPLL, 72 hours in PBS plus PQ-1, high inoculum (10^7), 24-hour incubation
[10] = Formulation F lenses without εPLL, 72 hours in PBS plus PQ-1, high inoculum (10^7), 24-hour incubation

polyquarternium-1 [PQ-1] was tested, and the “antimicrobial activity in biofilm assay” value [1, 7] was “lack of antimicrobial activity”, the “antimicrobial activity in biofilm assay” value [2, 7] was “lack of antimicrobial activity” and the “log kill 10 μ/ml PQ-1” value ([3]; SA, 24 hr, Formulation F lens without εPLL) was −0.74. The “log kill at 10 μg/ml PQ-1” value [3, 8] was −0.54, the “log kill at 30 μg/ml PQ-1” value [3, 8] was 1.47 and the “log kill at 100 μg/ml PQ-1” value [3, 8] was 3.04. The “log kill of SA” value [3] was “no significant activity”, the “log kill 10 μ/ml PQ-1” value ([4]; SM, 24 hr, Formulation F lens without εPLL) was 0.55 and the “log kill at 10 μg/ml PQ-1” value [4, 9] was −0.55. The “log kill at 30 μg/ml PQ-1” value [4, 9] was 0.55, the “log kill at 100 μg/ml PQ-1” value [4, 9] was 0.31 and the “log kill of SM” value [4] was “no significant activity”. For the same substance, the “log kill 10 μ/ml PQ-1” value ([5]; 24 hr, Formulation F lens without εPLL) was −0.23, the “log kill at 10 μg/ml PQ-1” value [5, 10] was −0.23 and the “log kill at 30 μg/ml PQ-1” value [5, 10] was 0.16. The “log kill at 100 μg/ml PQ-1” value [5, 10] was 3.43.
In the case of ε-polylysine [εPLL], the “Log εPLL (log CFU recovered per εPLL lens)” value ([6]; 0 hr wash lenses) is reported as 0.8, the “Log Reduction” value ([6]; 0 hr wash lenses) is reported as 3.7 and the “Log εPLL (log CFU recovered per εPLL lens)” value ([6]; 168 hr wash lenses) is reported as 3.1. The “Log Reduction” value ([6]; 168 hr wash lenses) was 2.4, the “Log εPLL (log CFU recovered per εPLL lens)” value ([1]; 0 hr wash lenses) was 1.0 and the “Log Reduction” value ([1]; 0 hr wash lenses) was 3.5. For the same substance, the “Log εPLL (log CFU recovered per εPLL lens)” value ([1]; 168 hr wash lenses) was 3.8, the “Log Reduction” value ([1]; 168 hr wash lenses) was 1.7 and the “Log εPLL (log CFU recovered per εPLL lens)” value ([2]; 0 hr wash lenses) was 0.9. For the same substance, the “Log Reduction” value ([2]; 0 hr wash lenses) was 5.0, the “Log εPLL (log CFU recovered per εPLL lens)” value ([2]; 168 hr wash lenses) was 0.6 and the “Log Reduction” value ([2]; 168 hr wash lenses) was 4.9. For the same substance, the “log kill εPLL” value ([3]; SA, 2 hr) was −0.06, the “log kill εPLL” value ([3]; SA, 6 hr) was 0.37 and the “log kill εPLL” value ([3]; SA, 24 hr) was 1.85. For the same substance, the “log kill of SA” value [3] was roughly 2 log, the “log kill εPLL” value ([4]; SM, 2 hr) was 0.19 and the “log kill εPLL” value ([4]; SM, 6 hr) was 0.74. For the same substance, the “log kill εPLL” value ([4]; SM, 24 hr) was 1.63, the “log kill of SM” value [4] was roughly 1.5 log and the “log kill εPLL” value ([5]; 2 hr) was 2.63. For the same substance, the “log kill εPLL” value ([5]; 6 hr) was 4.04 and the “log kill εPLL” value ([5]; 24 hr) was “≧4.04”.

From patent US20140178327A1, “Antimicrobial Ophthalmic Devices” (CooperVision International Holding Company, LP, priority 2012, published 2014)
